Read-outs that look alike come from different tables or passages of the source.
Legend:
[1] = type: in vivo, human; conditions: for estimated lemborexant exposure: population PK model
[2] = target: MATE1 (Homo sapiens, UniProt Q96FL8); experiment: In vitro transporter inhibition; type: in vitro ADME
[3] = target: OCT1 (Homo sapiens, UniProt O15245); experiment: In vitro transporter inhibition; type: in vitro ADME
[4] = target: OAT3 (Homo sapiens, UniProt Q8TCC7); experiment: In vitro transporter inhibition; type: in vitro ADME
Chain of OAT3 (Q8TCC7 whole entry): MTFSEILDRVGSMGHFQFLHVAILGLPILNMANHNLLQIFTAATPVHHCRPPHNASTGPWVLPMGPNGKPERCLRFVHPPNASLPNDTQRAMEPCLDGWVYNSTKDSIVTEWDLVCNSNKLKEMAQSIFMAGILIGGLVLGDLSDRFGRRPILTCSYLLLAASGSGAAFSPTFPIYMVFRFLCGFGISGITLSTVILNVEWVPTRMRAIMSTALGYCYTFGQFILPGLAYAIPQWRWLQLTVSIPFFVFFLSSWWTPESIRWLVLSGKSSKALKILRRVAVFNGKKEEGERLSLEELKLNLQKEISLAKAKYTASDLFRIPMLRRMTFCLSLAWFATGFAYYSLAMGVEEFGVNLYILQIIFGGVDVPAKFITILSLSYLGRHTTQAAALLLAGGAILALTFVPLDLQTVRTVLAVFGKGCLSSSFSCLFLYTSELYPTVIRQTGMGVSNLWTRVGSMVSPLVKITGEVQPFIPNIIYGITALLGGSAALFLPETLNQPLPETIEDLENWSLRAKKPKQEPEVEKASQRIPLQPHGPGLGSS

[5] = target: OATP1B3 (Homo sapiens, UniProt Q9NPD5); experiment: In vitro transporter inhibition; type: in vitro ADME
Chain of OATP1B3 (Q9NPD5 whole entry): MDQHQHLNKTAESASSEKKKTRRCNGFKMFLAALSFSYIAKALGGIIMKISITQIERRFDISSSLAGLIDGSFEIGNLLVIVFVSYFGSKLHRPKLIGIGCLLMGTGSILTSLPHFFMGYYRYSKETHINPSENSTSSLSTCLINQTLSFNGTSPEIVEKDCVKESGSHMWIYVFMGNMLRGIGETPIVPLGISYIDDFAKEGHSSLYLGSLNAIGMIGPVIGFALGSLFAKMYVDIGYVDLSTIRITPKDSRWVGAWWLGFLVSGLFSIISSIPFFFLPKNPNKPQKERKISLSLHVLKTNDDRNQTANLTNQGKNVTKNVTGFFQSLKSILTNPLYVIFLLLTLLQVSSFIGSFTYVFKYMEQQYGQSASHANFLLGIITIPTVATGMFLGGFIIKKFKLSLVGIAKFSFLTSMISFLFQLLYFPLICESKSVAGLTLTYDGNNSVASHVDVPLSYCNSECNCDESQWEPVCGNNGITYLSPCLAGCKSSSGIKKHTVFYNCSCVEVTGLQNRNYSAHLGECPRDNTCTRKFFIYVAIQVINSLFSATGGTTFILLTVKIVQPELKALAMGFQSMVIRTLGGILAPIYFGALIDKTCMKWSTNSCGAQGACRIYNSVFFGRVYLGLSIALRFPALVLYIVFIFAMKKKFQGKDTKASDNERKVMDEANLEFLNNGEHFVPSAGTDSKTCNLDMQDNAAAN

Chain of OCT1 (O15245 whole entry): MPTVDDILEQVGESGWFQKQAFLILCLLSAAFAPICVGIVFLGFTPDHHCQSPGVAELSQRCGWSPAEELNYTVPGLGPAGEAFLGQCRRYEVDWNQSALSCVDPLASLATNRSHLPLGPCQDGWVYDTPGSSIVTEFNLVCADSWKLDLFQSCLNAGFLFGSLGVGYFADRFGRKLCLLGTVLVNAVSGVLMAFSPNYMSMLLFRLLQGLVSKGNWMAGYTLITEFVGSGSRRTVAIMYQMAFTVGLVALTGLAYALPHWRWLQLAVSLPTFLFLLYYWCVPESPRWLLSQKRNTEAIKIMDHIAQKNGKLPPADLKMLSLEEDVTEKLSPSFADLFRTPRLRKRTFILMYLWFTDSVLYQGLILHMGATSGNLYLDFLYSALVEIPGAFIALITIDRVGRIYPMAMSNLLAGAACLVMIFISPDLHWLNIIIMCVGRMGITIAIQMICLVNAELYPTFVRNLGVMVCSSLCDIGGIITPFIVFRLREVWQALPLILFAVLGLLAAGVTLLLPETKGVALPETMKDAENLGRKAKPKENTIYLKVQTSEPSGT
Chain of MATE1 (Q96FL8 whole entry): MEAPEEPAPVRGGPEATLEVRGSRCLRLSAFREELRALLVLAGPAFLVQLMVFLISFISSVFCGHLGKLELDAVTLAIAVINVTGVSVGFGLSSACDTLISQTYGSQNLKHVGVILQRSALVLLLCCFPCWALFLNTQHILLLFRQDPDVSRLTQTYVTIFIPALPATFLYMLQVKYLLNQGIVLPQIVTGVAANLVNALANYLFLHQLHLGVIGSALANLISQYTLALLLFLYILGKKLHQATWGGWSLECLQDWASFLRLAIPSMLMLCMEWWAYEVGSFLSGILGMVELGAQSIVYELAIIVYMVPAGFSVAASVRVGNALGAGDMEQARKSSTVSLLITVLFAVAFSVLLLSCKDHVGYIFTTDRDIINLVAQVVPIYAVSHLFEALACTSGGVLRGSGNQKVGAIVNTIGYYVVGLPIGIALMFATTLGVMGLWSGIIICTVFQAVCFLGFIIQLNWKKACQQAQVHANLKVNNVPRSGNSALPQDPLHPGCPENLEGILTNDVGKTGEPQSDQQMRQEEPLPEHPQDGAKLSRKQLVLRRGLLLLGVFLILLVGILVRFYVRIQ

Cc1ncc(OC[C@@]2(c3cccc(F)c3)C[C@H]2C(=O)Nc2ccc(F)cn2)c(C)n1 [Lemborexant, (1R,2S)‐2‐{[(2,4‐dimethylpyrimidin‐5‐yl)oxy]methyl}‐2‐(3‐fluorophenyl)‐N‐(5‐fluoropyridin‐2‐yl)cyclopropanecarboxamide]
higher exposure with weak CYP3A inhibitors ([1]; average, with versus without weak CYP3A inhibitors): 30%
estimated lemborexant exposure ([1]; subjects coadministered weak CYP3A inhibitors, n = 15, studies 303 and 304): 420 ng·h/mL
estimated lemborexant exposure ([1]; subjects not coadministered weak CYP3A inhibitors, n = 257, studies 303 and 304): 330 ng·h/mL
degree of CYP3A inhibition (exposure ratio) ([1]; with versus without weak CYP3A inhibitors): 1.3 fold
inhibition of MATE1 [2]: do not inhibit
inhibition of OCT1 [3]: do not inhibit
inhibition of OAT3 [4]: do not inhibit
inhibition of OATP1B3 [5]: do not inhibit
